Where “and” joins values, the source holds several entries; their conditions need not be identical. Equal entries are not always repeated. Structures can show the parent of a compound that is named as a salt. Where two headings read alike, the source gives them in different places.
Assays:
[1] = tested on: EVSA-T (human breast carcinoma); test: Anti-proliferative activity, Alamar Blue assay, EVSA-T; type: cell-based; conditions: 72 hours compound, read-out: EVSA-T prolif
Description: (§1) The method is based on the ability of viable cells to reduce resazurin to its fluorescent product resorufin. For each proliferation assay cells are plated onto 96 well plates and allowed to recover for 16 hours prior to the addition of inhibitor compounds (in 0.1% DMSO v/v) for a further 72 hours.
(§2) The anti-proliferative activities of compounds of the invention can be determined by measuring the ability of the compounds to inhibit growth in 3 cancer cell lines: • EVSA-T (human breast carcinoma) DSMZ cat. no.

[2] = biological target: T1, XIAP-Caspase-9 in HEK293-XIAP-Caspase-9 cells (Homo sapiens, UniProt P98170); test: HEK293-XIAP-Caspase-9 immunoprecipitation (IP) MSD assay; type: cell-based; conditions: compound 2 h at 37° C.; read-out: HEK293-X-C9 IP
T1 construct: FLAG; expressed in transfected cells
Description: Stable HEK293-XIAP-Caspase-9 cells were plated out into 96-well plates [200 μl/well at 1×10^6 cells/mL in cultured complete medium (DMEM+10% FBS+0.5 mg/mL Geneticin (Invitrogen)] and left overnight at 37° C. to recover. Compounds were added to duplicate wells in 0.1% DMSO for 2 h at 37° C. Cells were lysed in 50 μl 1×MSD lysis buffer (1% Triton X-100 in 20 mM Tris·Cl (pH 7.6), 150 mM NaCl including protease inhibitors) for 20 min rocking at room temperature. Streptavidin high bind MSD plate (L15SB-2) were coated with biotinylated anti-FLAG M2 antibody (Sigma F9291) at 25 μl/well with a 5 μg/mL dilution of antibody in PBS for 1 h, shaking; followed by blocking for 1 h with 150 μl 3% BSA/TBST. Cell lysate (25 μl) was added to the 96-well anti-FLAG coated MSD plate and placed on shaker for 4 h at room temperature. […] Plates were washed 4 times with 150 μl TBST, and 150 μl/well 1×MSD read buffer (R92TC-2) added before reading each plate.
EC50 values were determined from dose-response plots using nonlinear least-squares analysis.

[3] = tested on: MDA-MB-231 (human breast carcinoma); test: Anti-proliferative activity, Alamar Blue assay, MDA-MB-231; type: cell-based; conditions: proliferation, 72 hours compound
Description: as §1, §2

hERG ion channel = biological target: T2, hERG ion channel (Homo sapiens, UniProt Q12809); test: Population Patch Clamp (PPC) hERG assay in CHO K1 cells; type: cell-based
T2 construct: expressed in transfected cells; host or cells: CHO K1
Description: Inhibition of the hERG channel was measured by automated patch clamp assay in CHO K1 cells, stably transfected with the hERG ion channel. PPC measurements were performed using an IonWorks Quattro instrument (Molecular Devices Corporation, Union City, CA) using a 384 well PatchPlate (Molecular Devices Corporation) with 64 apertures per well. Each concentration of test compound was tested in duplicate wells. Amphotericin B was used to obtain electrical access to the cell interior at a final concentration of 200 μg/mL. Human ether-à-gogo related gene (hERG) currents were measured with a prepulse to +40 mV (2 s) from the holding potential of −80 mV, followed by a step to −50 mV (2 s) to elicit the deactivating tail currents, before returning to the holding potential for 1s. Compounds were incubated for 600s between the pre- and post-compound reads. The external recording solution used was 130 mM Na Gluconate, 20 mM NaCl, 4 mM KCl, 1 mM MgCl2, 1.8 mM CaCl2, 10 mM Hepes, 5 mM Glucose, pH to 7.3 with NaOH. All data were filtered for seal quality, seal drop, and current amplitude. The maximum current amplitude of the 3rd pulse tail current was calculated before (Pre) and after (Post) compound addition and the amount of block assessed by dividing the Post-compound current amplitude by the Pre-compound current amplitude.

SK-MEL-28 [4] = test: Apoptosis induction (cleaved caspase-3 cytometry), SK-MEL-28; type: cell-based, human; conditions: 1 μM Example 2 plus 1 ng/ml TNF-α, 24 hour
Description: (§3) Melanoma cell lines were plated out in duplicate wells of 24-well plates at 0.5×10^6 cells/ml the day before treatment to allow them to adhere. After incubation of the cells with compound(s) with or without 1 ng/ml TNF-α (R&D Systems) for 24 h in a CO2 incubator at 37° C., cells were harvested by trypsinisation. The cell pellet from the 24-well plate was resuspended in 100 μl FACS buffer (PBS+1% fetal bovine serum). NucView488 reagent (from Biotium) was added to a final concentration of 2 μM. The plate was incubated in the dark for 30 minutes before measuring fluorescent stained cells in a Guava easyCyte HT cytometer (Millipore). Cleaved caspase-3 staining was recorded in the FL1 channel, with unstained and DMSO control wells being used to set the gated stained and unstained cell populations.

SK-MEL-5 = test: Apoptosis induction (cleaved caspase-3 cytometry), SK-MEL-5; type: cell-based, human; conditions: 1 μM Example 2 plus 1 ng/ml TNF-α, 24 hour
Description: as §3

SK-MEL-2 = test: Apoptosis induction (cleaved caspase-3 cytometry), SK-MEL-2; type: cell-based, human; conditions: 1 μM Example 2 plus 1 ng/ml TNF-α, 24 hour
Description: as §3

RPMI-7951 = test: Apoptosis induction (cleaved caspase-3 cytometry), RPMI-7951; type: cell-based, human; conditions: 1 μM Example 2 plus 1 ng/ml TNF-α, 24 hour
Description: as §3

MALME-3M = test: Apoptosis induction (cleaved caspase-3 cytometry), MALME-3M; type: cell-based, human; conditions: 1 μM Example 2 plus 1 ng/ml TNF-α, 24 hour
Description: as §3

A375 [5] = test: Apoptosis induction (cleaved caspase-3 cytometry), A375; type: cell-based, human; conditions: 1 μM Example 2 plus 1 ng/ml TNF-α, 24 hour
Description: as §3

WM-115 = test: Apoptosis induction (cleaved caspase-3 cytometry), WM-115; type: cell-based, human; conditions: 1 μM Example 2 plus 1 ng/ml TNF-α, 24 hour, dihydrochloride
Description: as §3

WM-266-4 = test: Apoptosis induction (cleaved caspase-3 cytometry), WM-266-4; type: cell-based, human; conditions: 1 μM Example 2 plus 1 ng/ml TNF-α, 24 hour, dihydrochloride
Description: as §3

SK-MEL-28 [6] = test: Combination protocol for apoptosis, SK-MEL-28; type: cell-based, human
Description: as §3, with “After” for “Melanoma cell lines were plated out in duplicate wells of 24-well plates at 0.5×10^6 cells/ml the day before treatment to allow them to adhere. After”

A375 [7] = test: Combination protocol for apoptosis, A375; type: cell-based, human; conditions: for % Apoptosis Example 2 alone* / % Apoptosis Combination: 24 h
Description: as §3
No increase in apoptosis was seen over this time scale with the combination agent shown in the first column of the table alone (with or without TNF-α)—data not shown.

T1 sequence (P98170 whole entry): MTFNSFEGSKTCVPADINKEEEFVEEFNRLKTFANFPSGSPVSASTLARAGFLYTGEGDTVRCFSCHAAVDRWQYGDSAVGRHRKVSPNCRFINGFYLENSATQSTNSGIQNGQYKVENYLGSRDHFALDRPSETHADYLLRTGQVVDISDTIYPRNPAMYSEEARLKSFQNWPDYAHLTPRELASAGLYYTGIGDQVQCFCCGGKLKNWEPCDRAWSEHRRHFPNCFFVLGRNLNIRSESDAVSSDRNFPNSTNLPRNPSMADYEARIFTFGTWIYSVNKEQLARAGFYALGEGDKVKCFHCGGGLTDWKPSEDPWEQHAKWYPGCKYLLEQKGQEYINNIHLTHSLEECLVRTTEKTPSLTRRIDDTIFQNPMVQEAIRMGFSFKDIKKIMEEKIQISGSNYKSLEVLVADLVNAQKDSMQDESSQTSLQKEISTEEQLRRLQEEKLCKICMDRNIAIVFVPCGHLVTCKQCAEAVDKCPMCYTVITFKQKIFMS
T2 sequence (Q12809 whole entry): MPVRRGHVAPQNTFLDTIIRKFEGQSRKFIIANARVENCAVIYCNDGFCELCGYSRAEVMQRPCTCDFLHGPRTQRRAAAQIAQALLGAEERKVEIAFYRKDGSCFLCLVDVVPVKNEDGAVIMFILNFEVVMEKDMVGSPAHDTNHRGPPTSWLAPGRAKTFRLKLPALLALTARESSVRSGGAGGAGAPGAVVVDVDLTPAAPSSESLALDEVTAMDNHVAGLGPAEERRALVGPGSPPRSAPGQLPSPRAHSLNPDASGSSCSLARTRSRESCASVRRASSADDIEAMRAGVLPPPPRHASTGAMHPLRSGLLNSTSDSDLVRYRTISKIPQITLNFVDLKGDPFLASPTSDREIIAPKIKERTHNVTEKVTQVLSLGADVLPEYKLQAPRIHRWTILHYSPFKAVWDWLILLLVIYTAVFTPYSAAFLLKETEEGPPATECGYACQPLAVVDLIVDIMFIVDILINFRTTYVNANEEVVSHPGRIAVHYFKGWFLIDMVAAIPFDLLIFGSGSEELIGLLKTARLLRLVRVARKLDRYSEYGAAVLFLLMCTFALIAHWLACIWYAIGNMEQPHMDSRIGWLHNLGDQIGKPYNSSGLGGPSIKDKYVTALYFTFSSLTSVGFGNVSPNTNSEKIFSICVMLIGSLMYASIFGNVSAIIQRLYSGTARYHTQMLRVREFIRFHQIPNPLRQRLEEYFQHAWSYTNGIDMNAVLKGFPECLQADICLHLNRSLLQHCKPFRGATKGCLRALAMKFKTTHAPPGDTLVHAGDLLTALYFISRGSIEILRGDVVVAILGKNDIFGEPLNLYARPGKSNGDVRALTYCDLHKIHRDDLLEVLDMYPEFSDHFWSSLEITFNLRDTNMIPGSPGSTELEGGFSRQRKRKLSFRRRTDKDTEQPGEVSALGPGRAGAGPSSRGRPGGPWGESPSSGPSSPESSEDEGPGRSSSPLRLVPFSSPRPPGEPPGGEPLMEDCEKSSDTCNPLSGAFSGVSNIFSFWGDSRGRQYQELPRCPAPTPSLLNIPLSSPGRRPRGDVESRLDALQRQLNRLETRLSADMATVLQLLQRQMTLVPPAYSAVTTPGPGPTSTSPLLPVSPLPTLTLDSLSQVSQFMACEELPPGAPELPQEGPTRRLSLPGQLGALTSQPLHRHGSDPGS

Q: Which results are given for `COC(CO)c1nc2c(cc1Cc1ccc(F)cc1)N(C(=O)CN1C[C@@H](C)NC[C@@H]1CN1[C@H](C)COC[C@H]1C)CC2(C)C` (single isomer, unassigned) [Example 36, 2-[(2R,5R)-2-{[(3R,5R)-3,5-Dimethylmorpholin-4-yl]methyl}-5-methylpiperazin-1-yl]-1-{6-[(4-fluorophenyl)methyl]-5-((R or S)-2-hydroxy-1-methoxyethyl)-3,3-dimethyl-1H,2H,3H-pyrrolo[3,2-b]pyridin-1-yl}ethan-1-one]?
A: EC50 [1]: 0.48 nM; EC50 ([1]; Homo sapiens, EVSA-T, 72 h): 0.38 nM; EC50 [2]: 2.6 nM and 4.2 nM; EC50 ([3]; Homo sapiens, MDA-MB-231, 72 h): 2.5 nM; EC50 [3]: 2.7 nM; IC50 (hERG ion channel; CHO K1 cells stably transfected with hERG): 420000 nM

Q: How did the “% Cleaved Caspase-3” value (SK-MEL-28 [4]) turn out when `C[C@@H]1CN(CC(=O)N2CC(C)(C)c3nc(CO)c(Cc4ccc(F)cc4)cc32)[C@@H](CN2CCOC[C@H]2C)CN1` [Example 2, 1-{6-[(4-Fluorophenyl)methyl]-5-(hydroxymethyl)-3,3-dimethyl-1H,2H,3H-pyrrolo[3,2-b]pyridin-1-yl}-2-[(2R,5R)-5-methyl-2-{[(3R)-3-methylmorpholin-4-yl]methyl}piperazin-1-yl] ethan-1-one dihydrochloride] was run?
A: 63.2%

Q: And the “% Cleaved Caspase-3” value (SK-MEL-5)?
A: 52.8%

Q: And the “% Cleaved Caspase-3” value (SK-MEL-2)?
A: 49.5%

Q: And the “% Cleaved Caspase-3” value (RPMI-7951)?
A: 44.0%

Q: And the “% Cleaved Caspase-3” value (MALME-3M)?
A: 29.5%

Q: And the “% Cleaved Caspase-3” value (A375 [5])?
A: 26.5%

Q: And the “% Cleaved Caspase-3” value (WM-115)?
A: 16.7%

Q: And the “% Cleaved Caspase-3” value (WM-266-4)?
A: 13.2%

Q: What about the “% Apoptosis Example 2 alone*” value (SK-MEL-28 [6]; Example 2 0.1 μM + 1 ng/ml TNF-α, 24 h) of the same molecule?
A: 42.2 (0.1 μM) %

Q: What about the “% Apoptosis Example 2 alone*” value (A375 [7]; Example 2 0.1 μM + 1 ng/ml TNF-α) of the same molecule?
A: 14.4 (0.1 μM) %

Q: And the “% Apoptosis Example 2 alone*” value (A375 [7]; Example 2 1 μM + 1 ng/ml TNF-α)?
A: 31.2 (1 μM) %

Q: `CCCCn1cc2c(cc1=O)C(C)(C)CN2C(=O)CN1C[C@@H](C)NC[C@@H]1CN1[C@H](C)COC[C@H]1C` [Example 35, 6-Butyl-1-{2-[(2R,5R)-2-{[(3R,5R)-3,5-dimethylmorpholin-4-yl]methyl}-5-methylpiperazin-1-yl]acetyl}-3,3-dimethyl-1H,2H,3H,5H,6H-pyrrolo[2,3-c]pyridin-5-one dihydrochloride] was tested. Which EC50 ([1]; Homo sapiens, EVSA-T, 72 h) did it give?
A: 16 nM

Q: What about the EC50 [2] of the same molecule?
A: 13 nM

Q: What about the EC50 ([3]; Homo sapiens, MDA-MB-231, 72 h) of the same molecule?
A: 130 nM

Q: What about the “hERG PPC (PI)” value (hERG ion channel; @ 1000 μM) of the same molecule?
A: 53% @ 1000

Q: With `CCCCc1cc2c([nH]c1=O)C(C)(C)CN2C(=O)CN1C[C@@H](C)NC[C@@H]1CN1C[C@H](C)OC[C@H]1C` [Example 37, 6-Butyl-1-{2-[(2R,5R)-2-{[(2S,5R)-2,5-dimethylmorpholin-4-yl]methyl}-5-methylpiperazin-1-yl]acetyl}-3,3-dimethyl-1H,2H,3H,4H,5H-pyrrolo[3,2-b]pyridin-5-one dihydrochloride] as the molecule, how does the EC50 ([1]; Homo sapiens, EVSA-T, 72 h) read?
A: 3.2 nM

Q: What about the EC50 [2] of the same molecule?
A: 7.4 nM

Q: And the EC50 ([3]; Homo sapiens, MDA-MB-231, 72 h)?
A: 18 nM

Q: And the “hERG PPC (PI)” value (hERG ion channel; @ 500 μM)?
A: 63% @ 500

Q: `CC(=O)Nc1cccc(-n2c(=O)n(C3CC3)c(=O)c3c(Nc4ccc(I)cc4F)n(C)c(=O)c(C)c32)c1` [Trametinib] was tested. Which “% Apoptosis Combination” value (A375 [7]; agent 0.1 μM with Example 2 0.1 μM + 1 ng/ml TNF-α) did it give?
A: 52.3%

Q: And the “Fold Increase” value (A375 [7]; combination (agent 0.1 μM) relative to Example 2 0.1 μM + TNF-α alone)?
A: 3.6

Q: Which “% Apoptosis Combination” value (SK-MEL-28 [6]; agent 1 μM with Example 2 1 μM + 1 ng/ml TNF-α, 24 h) does the source give for `CCCS(=O)(=O)Nc1ccc(F)c(C(=O)c2c[nH]c3ncc(-c4ccc(Cl)cc4)cc23)c1F` [Vemurafenib, reference compound] here?
A: 87.3%

Q: And the “Fold Increase” value (SK-MEL-28 [6]; combination (agent 1 μM) relative to Example 2 1 μM + TNF-α alone)?
A: 1.7

Q: What about the “% Apoptosis Combination” value (A375 [7]; agent 4 μM with Example 2 1 μM + 1 ng/ml TNF-α) of the same molecule?
A: 61.3%

Q: What about the “Fold Increase” value (A375 [7]; combination (agent 4 μM) relative to Example 2 1 μM + TNF-α alone) of the same molecule?
A: 2.0
